Assay results published in US10010541B2, “Modulation of tissue transglutaminase activation in disease” (The Board of Trustees of the Leland Stanford Junior …, priority 2014, dated 2018).

What was measured:
TG1 = biological target: T1, TG1 (Homo sapiens, UniProt P22735); assay: glutamate dehydrogenase-coupled deamidation assay, substrate Cbz-Gln-Ser; assay type: biochemical; conditions: irreversible inhibition model, full progress curves
T1 sequence (P22735 1-817): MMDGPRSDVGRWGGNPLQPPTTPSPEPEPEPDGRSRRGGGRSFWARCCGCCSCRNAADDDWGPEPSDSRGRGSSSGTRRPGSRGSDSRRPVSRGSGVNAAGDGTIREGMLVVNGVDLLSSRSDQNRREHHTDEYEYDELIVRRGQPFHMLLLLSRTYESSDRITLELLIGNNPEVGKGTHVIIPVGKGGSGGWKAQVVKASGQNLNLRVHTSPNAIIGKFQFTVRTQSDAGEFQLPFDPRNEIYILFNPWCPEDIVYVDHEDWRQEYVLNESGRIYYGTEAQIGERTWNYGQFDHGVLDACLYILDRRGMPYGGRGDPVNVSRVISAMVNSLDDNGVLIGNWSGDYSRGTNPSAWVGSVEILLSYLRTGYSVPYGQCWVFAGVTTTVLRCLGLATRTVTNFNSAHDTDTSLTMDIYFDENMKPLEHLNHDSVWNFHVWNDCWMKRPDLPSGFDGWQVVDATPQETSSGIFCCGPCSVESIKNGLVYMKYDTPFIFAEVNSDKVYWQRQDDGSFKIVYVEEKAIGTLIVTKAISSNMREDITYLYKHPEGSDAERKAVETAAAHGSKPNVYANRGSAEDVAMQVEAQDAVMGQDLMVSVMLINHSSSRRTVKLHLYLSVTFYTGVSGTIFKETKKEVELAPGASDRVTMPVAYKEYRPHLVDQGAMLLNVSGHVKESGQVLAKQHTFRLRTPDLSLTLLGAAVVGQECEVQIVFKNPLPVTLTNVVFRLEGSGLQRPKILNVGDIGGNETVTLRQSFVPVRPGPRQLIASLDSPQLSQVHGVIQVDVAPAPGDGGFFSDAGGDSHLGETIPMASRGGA

TG2 = biological target: T2, TG2 (Mus musculus, UniProt P21981); assay: TG2 activity (5-BP probe) in tissues of LPS-induced septic mice; assay type: in vivo; conditions: septic mice (LPS 5 mg/kg iv); 50 mg/kg intraperitoneally
T2 construct: host or cells: mice (in vivo)
T2 sequence (P21981 1-686): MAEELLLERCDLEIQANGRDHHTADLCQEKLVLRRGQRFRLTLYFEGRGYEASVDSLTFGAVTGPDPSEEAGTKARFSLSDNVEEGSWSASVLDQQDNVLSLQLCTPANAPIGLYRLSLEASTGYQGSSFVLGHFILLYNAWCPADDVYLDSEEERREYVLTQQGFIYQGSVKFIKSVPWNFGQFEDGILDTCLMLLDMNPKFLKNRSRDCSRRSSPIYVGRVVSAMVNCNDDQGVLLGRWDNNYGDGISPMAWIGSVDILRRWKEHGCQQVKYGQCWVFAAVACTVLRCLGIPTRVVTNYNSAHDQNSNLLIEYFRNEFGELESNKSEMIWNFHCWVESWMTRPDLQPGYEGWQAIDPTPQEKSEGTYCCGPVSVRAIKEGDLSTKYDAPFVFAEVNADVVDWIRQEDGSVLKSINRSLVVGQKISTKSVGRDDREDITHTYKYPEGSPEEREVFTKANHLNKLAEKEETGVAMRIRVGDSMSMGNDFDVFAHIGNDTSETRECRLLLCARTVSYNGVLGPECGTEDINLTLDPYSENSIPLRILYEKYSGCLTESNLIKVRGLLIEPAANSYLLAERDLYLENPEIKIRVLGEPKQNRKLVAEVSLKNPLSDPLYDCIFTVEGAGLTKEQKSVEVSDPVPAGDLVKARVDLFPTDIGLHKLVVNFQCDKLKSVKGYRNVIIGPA
Description: FIG. 2: TG2 is active in septic mice and can be inhibited by the intraperitoneal administration of 50 mg/kg CK996: Panels (A) through (C) depict tissues from the liver, lung and small intestine from septic male BL6 mice that were stained for TG2 protein (top row) or TG2 activity (middle row). The bottom row depicts the merged images from the TG2 protein and activity channel, respectively. Tissues from mice that had received the TG2 inhibitor CK996 are shown in the right set of images in each panel whereas tissues from control mice that received vehicle only are shown in the left set of images. Panel (D) quantifies the ratio of TG2 activity to TG2 protein signal intensity. All mice in this study received lipopolysaccharide (LPS, 5 mg/kg i.v., at t=0) and the TG2 activity-based probe 5-biotinamidopentylamine (5-BP, 100 mg/kg i.p., at t=0 and 90 min)(Dafik et al., 2012; Siegel et al., 2008). One cohort of mice additionally received an intraperitoneal dose of the TG2 inhibitor CK996 (50 mg/kg i.p., at t=0 and 60 min) in vehicle (PBS with 10% DMSO and 2% 2,6-di-(OMe)-beta-cyclodextrin), whereas the control mice received the vehicle alone. At 3 hours the mice were euthanized, tissues collected and frozen in OCT medium and then TG2 protein and activity (5-BP) stained, imaged and quantified as described in the literature (Diraimondo et al., 2013 ACS Chem. Biol.). […]

O=C(N[C@@H]1C[C@@H](C(=O)NC[C@@H]2CC(Br)=NO2)N(C(=O)OCc2cnc3ccccc3c2)C1)c1cccnc1 [Compound 5, (2S,4R)-quinolin-3-ylmethyl 2-((((S)-3-bromo-4,5-dihydroisoxazol-5-yl)methyl)carbamoyl)-4-(nicotinamido)pyrrolidine-1-carboxylate]
kinh/Ki TG1 (TG1): 333 M⁻¹ s⁻¹
TG2 activity in intestines, livers and lungs (TG2): fully suppressed
